Data taken from article PMC10942258 (PLOS Biology, 2024).
pKd: −log10 of the molar value.

Target: VP35 (EBOV VP35) (Ebola virus - Mayinga, Zaire, 1976, UniProt Q05127)
Assay: biochemical
Format: binding

Sequence of VP35 (EBOV VP35) (Q05127 whole entry, looked up): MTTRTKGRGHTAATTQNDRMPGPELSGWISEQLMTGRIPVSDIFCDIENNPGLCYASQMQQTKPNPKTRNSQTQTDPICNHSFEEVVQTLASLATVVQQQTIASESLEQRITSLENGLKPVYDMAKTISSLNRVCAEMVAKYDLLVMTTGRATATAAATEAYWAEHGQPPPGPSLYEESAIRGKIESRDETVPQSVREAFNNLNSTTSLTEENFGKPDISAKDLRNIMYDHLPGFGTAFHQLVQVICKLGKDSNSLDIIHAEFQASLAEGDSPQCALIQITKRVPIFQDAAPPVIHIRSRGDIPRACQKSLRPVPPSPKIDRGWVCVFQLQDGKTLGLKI

## Cc1oc(C)c(S(N)(=O)=O)c1C(=O)O [SFC, 2,5-Dimethyl-4-sulfamoyl furan-3-carboxylic acid]
  pKd: ~6.43
